The source of these data is patent publication EP2768830B1, “APOPTOSIS-INDUCING AGENTS FOR THE TREATMENT OF CANCER AND IMMUNE AND AUTOIMMUNE DISEASES” (AbbVie Inc., priority 2011, dated 2013).

One test has as its target GST-Bcl-xL (Homo sapiens, UniProt Q07817). The following applies: read-out: TR-FRET binding Bcl-xL Ki. A general note: Time-resolved FRET reads energy transfer from a long-lived donor to a nearby acceptor.
The target in the next test is T1, GST-Bcl-2 (Homo sapiens, UniProt P10415).
T1 construct: made in house
To be noted: F-Bak probe, read-out: Ki, competition with F-Bak for the Bcl-2 binding site using the TR-FRET binding assay.

Test [1] concerns mouse FL5.12 cells transfected with Bcl-XL. Briefly: FL5.12 cellular assay (cell viability, CellTiter-Glo).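 Also: each EC50 determination derived from duplicate measurements.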 The following applies: Mus musculus; FL5.12 cells transfected with Bcl-XL, IL-3-depleted, 3% FBS assay media, 24 hours, CellTiter-Glo; read-out: FL5.12 Bcl-xL, - IL3, EC 50. In kind it is cell-based. In general terms: ATP-based viability assays read luminescence as a measure of living cells.

Broadly, the Ki is the dissociation constant of the complex between target and ligand, obtained from inhibition or displacement.

GST-Bcl-xL, sequence (Q07817 whole entry): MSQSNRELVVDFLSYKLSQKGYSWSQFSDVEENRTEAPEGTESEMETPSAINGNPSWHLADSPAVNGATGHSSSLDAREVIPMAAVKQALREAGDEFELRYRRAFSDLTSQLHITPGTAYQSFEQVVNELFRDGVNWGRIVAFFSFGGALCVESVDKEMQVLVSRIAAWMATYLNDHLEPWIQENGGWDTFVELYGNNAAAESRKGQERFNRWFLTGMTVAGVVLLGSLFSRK
T1 sequence (P10415 whole entry): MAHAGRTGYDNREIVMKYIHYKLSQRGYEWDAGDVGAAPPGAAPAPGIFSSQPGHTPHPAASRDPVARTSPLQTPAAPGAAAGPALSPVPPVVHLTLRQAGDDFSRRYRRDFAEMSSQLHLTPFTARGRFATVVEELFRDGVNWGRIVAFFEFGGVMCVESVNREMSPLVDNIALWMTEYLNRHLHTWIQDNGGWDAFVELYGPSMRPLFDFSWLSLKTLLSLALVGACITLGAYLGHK

In the case of `Cc1c(-c2ccc(N3CCc4cccc(C(=O)Nc5nc6ccccc6s5)c4C3)nc2C(=O)O)cnn1Cc1ccccc1` [Example 20, 6-[8-(1,3-benzothiazol-2-ylcarbamoyl)-3,4-dihydroisoquinolin-2(1H)-yl]-3-(1-benzyl-5-methyl-1H-pyrazol-4-yl)pyridine-2-carboxylic acid], the Ki at GST-Bcl-xL turned out to be 2 nM; at GST-Bcl-2, 70 nM. Further, the EC50 in test [1] turned out to be 13 nM.
With `Cc1c(-c2ccc(N3CCc4cccc(C(=O)Nc5nc6ccccc6s5)c4C3)nc2C(=O)O)ccnc1N1CCCCC1` [Example 183, 6-[8-(1,3-benzothiazol-2-ylcarbamoyl)-3,4-dihydroisoquinolin-2(1H)-yl]-3'-methyl-2'-(piperidin-1-yl)-3,4'-bipyridine-2-carboxylic acid], on GST-Bcl-xL, the Ki was determined as 0.7 nM. Moreover, the EC50 in test [1] was 507 nM.
The matching figures for `COCCC(C1CCCCC1)n1ncc(-c2ccc(N3CCc4cccc(C(=O)Nc5nc6ccccc6s5)c4C3)nc2C(=O)O)c1C` (centres unmarked) [Example 184, 6-[8-(1,3-benzothiazol-2-ylcarbamoyl)-3,4-dihydroisoquinolin-2(1H)-yl]-3-[1-(1-cyclohexyl-3-methoxypropyl)-5-methyl-1H-pyrazol-4-yl]pyridine-2-carboxylic acid]: under 0.1 nM and 2 nM.
Taken in the same sequence, the figures for `O=C(Nc1nc2ccccc2s1)c1cccc2c1CN(c1ccc(-c3cccc4c3cnn4Cc3ccccc3)c(C(=O)O)n1)CC2` [Example 187, 6-[8-(1,3-benzothiazol-2-ylcarbamoyl)-3,4-dihydroisoquinolin-2(1H)-yl]-3-(1-benzyl-1H-indazol-4-yl)pyridine-2-carboxylic acid] were 0.4 nM and 318 nM.
Taken in the same sequence, the figures for `O=C(Nc1nc2ccccc2s1)c1cccc2c1CN(c1ccc(-c3cn(Cc4ccccc4)c4cnccc34)c(C(=O)O)n1)CC2` [Example 188, 6-[8-(1,3-benzothiazol-2-ylcarbamoyl)-3,4-dihydroisoquinolin-2(1H)-yl]-3-(1-benzyl-1H-pyrrolo[2,3-c]pyridin-3-yl)pyridine-2-carboxylic acid] were 0.5 nM and 546 nM.
